{
  "source": "patent US20260069581A1",
  "about": "“METHODS AND COMPOSITIONS FOR CANCER THERAPY” (OHIO STATE INNOVATION FOUNDATION, priority 2020, published 2026)",
  "key": {"[1]": {"test_system": "luciferase-tagged MOLM13 cells", "test": "In vivo MOLM13 xenograft study, efficacy", "settings": "MOLM13-engrafted NCG mice; KPT-9274 100 mg/kg daily, AR-42 20 mg/kg every another day, oral gavage", "quoted_text": "NCG mice were engrafted with luciferase-tagged MOLM13 cells and treated with vehicle, 20 mg/kg AR-42, 100 mg/kg KPT-9274 and AR-42/KPT-9274 in combination.\nMale NOD-Prkdc^em26cd52Il2rg^em26cd22/NjuCrl (NCG) mice (RRID:IMSR_CRL:572) (aged 6-8 weeks) were obtained from Charles River Laboratory. Mice were group-housed under conditions of constant photoperiod (12-hour light/12-hour dark), temperature, and humidity with adlibitum access to water and irradiated standard pelleted chow. 104 luciferase-tagged MOLM13 cells were injected via tail vein into NCG mice. On day 5 post-engraftment, mice were randomized to receive placebo (vehicle; Karyopharm Therapeutics) once daily, 100 mg/kg of KPT-9274 (Karyopharm Therapeutics) once daily, 20 mg/kg AR-42 every another day and the combination of KPT-9274 and AR-42 via oral gavage. Overall survival was the primary end point for the majority of the mice. A separate cohort of mice per group was used to monitor leukemic progression using IVIS imaging. Mice were monitored by animal technicians who were blinded to the treatment groups and determined when mice met early removal criteria (20% weight loss, lethargy, hunching, and poor body condition). Mice were euthanized by CO2 inhalation.\nTo determine the clinical relevance of the drug combination, the efficacy of co-treatment of AR-42 and KPT-9274 was tested in the MOLM13 xenograft model. […]"}, "[2]": {"test_system": "DNA repair genes in patient LICs (CD34+ CD38−)", "test": "LC-RNA-seq of primary patient LICs", "format": "cell-based, human", "procedure": "FIG. 5A-5E show representative data that AR-42 and KPT-9274 synergistically alter DNA repair gene sets of LIC transcriptomes. […] Briefly, primary cells from 5 patients were treated with drug combination or vehicle for 12 hours before LICs (CD34^+ CD38^−) were sorted for LC-RNA-seq. […] Cutoff Log 2FC=1.5; p-value<10e^−2. […] The hierarchical clustering of genes and samples was performed using Euclidean distance matrix and Ward's clustering method.\nLimiting cell-RNA-seq (LC-RNA-seq) for primary patient LICs. LC-RNA-seq was performed as previously described to determine transcriptome profiles and differentially expressed genes (DEGs) of patient LICs treated with various inhibitors (21). Briefly, patient cells were cultured in the presence of cytokines and treated with vehicle, single agents or drug combination. 300 viable LICs from treated patient samples were sorted directly into SMART-seq lysis buffer with FACSAria Fusion (BD) based on putative stem cell markers CD34^+ CD38^− (22). […] The Clontech SMARTer v4 kit (Takara Bio USA, Inc., Mountain View, CA) was used for preamplifying samples prior to library construction with the Nextera XT DNA Library Prep Kit (Illumina, Inc., San Diego, CA). Samples were sequenced to a depth of 15-20 million 2×150 bp clusters with the Illumina HiSeq 4000 platform. After quality control with CLEAR selection process and size-normalization, DEGs were called with DESeqs with (FDR) adjusted p-value <0.05. Principle component analysis (PCA) plots were created from count tables which were normalized by size and transformed. For pathway analysis, the list of DEGs, containing gene IDs and corresponding expression values, was uploaded into the IPA software (Qiagen) (Ingenuity Pathway Analysis, RRID:SCR_008653). […]\nThe synthetic lethality of AR-42 and KPT-9274 is conferred by simultaneous suppression of HR and NHEJ pathways in leukemia initiating cells (LICs). […] Treated LICs were analyzed for transcriptional differences and DNA repair mechanisms were highlighted."}, "[3]": {"test_system": "NHEJ activity in EJDR-reporter-stable U2OS cells", "test": "EJDR reporter assay, NHEJ DsRed", "format": "cell-based", "procedure": "EJDR reporter assay. The EJDR assay was described previously (20). EJDR reporter cells were plated at 5×10^5 cells per well in 10% FBS and RPM11640. After drug treatments, cells were grown in 10% Tet-free FBS (100-800; Gemini) and RPM11640. Incorporated I-Sce1 was induced with Shield1 (632189; Clontech) and triamcinolone (TA) (T6510; Sigma Aldrich) ligands for 24 hours. NHEJ and HR repair activities were assessed 48 hours post induction by quantification of DsRed- and GFP-positive cells on Cytomics FC 500 Flow Cytometer (Beckman Coulter, Brea, CA).\nIt was unclear whether the potent ability of HDAC inhibitor to induce apoptosis of AML cells in combination with NAMPT inhibition was due to the loss of HR or NHEJ activity alone or both together. Accordingly, HR and NHEJ activities in AML cells exposed to these treatments were examined using the EJDR reporter system (FIG. 6B). EJDR-reporter-stable U2OS cells were treated with vehicle, single agents, or drug combination before being incubated with ligands, TA and Shield 1. […] The expression of D-NHEJ pathway factors, Ku70 and DNA-PKcs, and ATM pathway mediators, CHEK1 and CHEK2, were abolished by AR-42 and KPT-9274 co-treatment. […] Therefore, suppression of HDAC8 can attenuate HR and D-NHEJ gene expressions, resulting in NAMPT inhibitor sensitivity."}, "MOLM13 cells": {"test_system": "MOLM13 cells", "test": "Western blotting of HR, NHEJ and ATM markers", "format": "cell-based, human", "procedure": "Thereafter, cells were fixed, permeabilized and stained with BV421 mouse anti-H2A.X (pS139) (Clone N1-431). Stained cells were analyzed by flow cytometry. Results are shown as mean±SEM of duplicates. *p<0.05. N.S.: not significant. […] Results are shown as mean±SEM of duplicates. *p<0.05. […] MOLM13 cells were treated with vehicle control, 0.4 μM or 0.8 μM AR-42 alone, 0.1 μM or 0.25 μM KPT-2974 alone and drug combination for 24 hours before being subject to Western blotting analysis of HR, NHEJ and ATM markers. GAPDH served as loading control. Results are representative of two independent experiments. In the FIG. the treatment concentrations, protein detected in the given Western blot, and molecular weight of the protein detected are as shown in the figure. […] Scrambled or shHDAC8-transduced MOLM13 cells were treated with vehicle, 0.1 μM or 0.25 μM KPT-2974 before being subject to immunoblotting analysis of DNA repair targets. GAPDH serves as loading control. Results are representative of two independent experiments. In the FIG. the treatment concentrations, protein detected in the given Western blot, and molecular weight of the protein detected are as shown in the figure. […] PAPR1 was immunoprecipitated and mono-ADP-ribosylation was detected by western blotting. Results are representative of two independent experiments. […]"}},
  "data": [
    {"smiles": "Nc1ccc(/C=C/C(=O)NCc2cc3cc(-c4ccc(C(=O)N5CCC(F)(F)CC5)cc4)cc(-c4ccc(F)cc4)c3o2)cn1", "note": "[KPT-9274, (E)-3-(6-aminopyridin-3-yl)-N-[[5-[4-(4,4-difluoropiperidine-1-carbonyl)phenyl]-7-(4-fluorophenyl)-1-benzofuran-2-yl]methyl]prop-2-enamide]", "values": [
      {"measurement": "median survival time", "setting": "[1]", "result": 27, "unit": "days"},
      {"measurement": "BRCA1 and XRCC4 expression", "setting": "[2]; KPT-9274 alone, in some patients", "result": "upregulated"},
      {"measurement": "yields of D-NHEJ transcripts (XRCC6, PRKDC) and B-NHEJ gene PARP1", "setting": "[2]; in all patients", "result": "decreased"},
      {"measurement": "NHEJ activity (percentage of DsRed+ cells)", "setting": "[3]", "result": "more robust reduction"},
      {"measurement": "abundance of D-NHEJ and ATM pathway mediators", "setting": "MOLM13 cells; shHDAC8-transduced MOLM13, 0.1 μM or 0.25 μM KPT-9274", "result": "synergistically downregulated"}
    ]},
    {"smiles": "CC(C)[C@H](C(=O)Nc1ccc(C(=O)NO)cc1)c1ccccc1", "note": "[AR-42, (S)—N-Hydroxy-4-(3-methyl-2-phenylbutanamido)benzamide]", "values": [
      {"measurement": "median survival time", "setting": "[1]", "result": 29, "unit": "days"},
      {"measurement": "mRNA levels of HR genes (NBN, RBBP8, RAD51, BRCA1), D-NHEJ genes (XRCC4, XRCC5) and ATM pathway genes (CHEK1, CHEK2)", "setting": "[2]; AR-42 alone or in combination with KPT-9274, 12 hours", "result": "downregulated"},
      {"measurement": "NHEJ activity (percentage of DsRed+ cells)", "setting": "[3]", "result": "NHEJ deficiency"},
      {"measurement": "levels of HR components CtIP, Rad51, phosphorylated BRCA1 and phosphorylated ATM", "setting": "MOLM13 cells; 0.4 μM and 0.8 μM AR-42, monotherapy or with KPT-9274, 24 hours", "result": "significantly reduced"}
    ]}
  ]
}
